Experiments:
[1] = tested on: PD-L1 and PD-L2 in AML cells (MONOMAC 6); assay: Expression of PD-L1 and PD-L2 upon DNMT inhibitor treatment; conditions: for expression of PD-L1/2: in AML
Method: Expression of PD-L1, PD-L2, and m^6A abundance upon DNMT inhibitor treatment in AML cells was analyzed. MONOMAC 6 cells were treated with PBS, 1 μM, 3 μM, and 5 μM DAC for 48 hours.

pancreatic cancer = assay: Anti-tumor effects in solid tumors; format: cell-based
Description: (§1) Besides in hematopoietic malignancy, FTO also plays oncogenic function in solid tumors, such as glioblastoma (GBM) and lung squamous cell carcinoma (LUSC). To broaden the application of the FTO inhibitors in additional cancers, expression of FTO in various types of cancers was adopted from cBioPortal for Cancer Genomics (http://www.cbioportal.org/).
(§2) Cell culture: For leukemia cells, U937 and MV4-11 were obtained from American Type Culture Collection (ATCC) and cultured in endotoxin-free RPMI1640 supplemented with 10% fetal bovine serum (FBS) (Gemini Bio-Products); K562 (ATCC) was cultured in IMDM with 10% FBS; NOMO-1, ML-2, NB4 were obtained from DSMZ and kept in RPM11640 with 10% FBS; SKNO-1 (DSMZ) was maintained in RPM11640 with 10% FBS and 10 ng/ml GM-CSF; MA9.3ITD (MLL-AF9 plus FLT3-ITD-transformed human CD34^+ cord blood) and MA9.3RAS (MLL-AF9 plus NRasG12D-transformed human CD34^+ cord blood), established by Dr. James Mulloy (30), were maintained in IMDM supplemented with 20% FBS. AML patient-derived primary cells were kept in IDMD supplemented with 20% FBS, 10 ng/ml human cytokines SCF, TPO, FLT3 ligand, IL-3, and IL-6. The glioblastoma cell lines, including 8MGBA, A172 and U87MG were originally maintained by Dr. David Plas from University of Cincinnati, and cultured in RPMI1640 with 10% FBS. Breast tumor cell lines, including ZR-75-1 and MDA-MB-231, were purchased from ATCC, and cultivated in RPMI1640 with 10% FBS. The cell lines from lung cancer, H1993, H2009, and H1437, and pancreatic cancer cells Capan-1 and miAPACA2 were kindly provided by Dr. Ravi Salgia from City of hope, and maintained in RPMI1640 with 10% FBS. All the cells are not among commonly misidentified cells lines, and were tested for Mycoplasma contamination yearly using a PCR Mycoplasma Detection Kit (Applied Biological Materials Inc.). In order to prevent potential contamination, all the mediums were supplemented with Penicillin-Streptomycin (15140122, Life Technologies) and Plasmocin prophylactic (Applied Biological Materials Inc.) according to the manufacture's instruction.

Glioma = assay: Anti-tumor effects in solid tumors; format: cell-based
Description: as §1, §2

breast tumors = assay: Anti-tumor effects in solid tumors; format: cell-based
Description: as §1, §2

[2] = tested on: AML patient-derived CD34+ cells; assay: Cell viability of AML patient-derived CD34+ cells; format: cell-based, human; conditions: 100 nM formula (I), 200 nM formula (II), 48 hours
[3] = tested on: primary AML cells from a relapsed AML patient; assay: AML PDX mouse model; conditions: i.p.
Method: (§3) The experiment was repeated with secondary BMT with MA9 leukemic cells. […] 1×10^6 mononuclear cells (MNCs) were isolated from bone marrow of the AML patients and transplanted into NRGS recipient mice. Drug treatment (5 mg/kg/day, every other day treatment, 10 times in total) was started from day 8 after transplantation.
As PDX mouse models, 1×10^6 AML patient derived cells were transplanted into NRGS recipient mice intravenously, and drug treatment was started from 7 days later.

AML cells = assay: Sensitization of AML cells to other therapeutic agents; conditions: for effect with TKI in inhibiting viability: human AML cells
NOMO-1 cells = assay: Cell apoptosis assay; format: cell-based; conditions: 48 hour; 50, 200, 400 nM formula (I); 100, 500, 1000 nM formula (II)
Method: Cell cycle and apoptosis assays: Propidium Iodide (PI) DNA staining was chosen to assess the cells located at G0/G1, S, and G2/M stages; while Hoechest 33342 and Pyronin Y was selected to evaluate cells at G0, G1, and S/G2/M phases. For PI staining, 1*10^6 cells were collected, washed once with PBS, and suspended in 1 ml buffer with 0.05 mg/ml PI, 0.1% trisodium citrate, 0.02 mg/ml ribonuclease A, 0.3% NP-40, incubated at 37° C. for 30 minutes, and then applied to flow cytometer directly. As Hochest 33342/Pyronin Y staining, the cells were collected, washed, and re-suspended in 1 ml cell culture medium, stained with 10 μg/ml Hochest 33342 at 37° C. for 45 minutes, and further stained with 0.5 μg/ml Pyronin Y for additional 15 minutes at 37° C. The samples were transferred onto ice before subjected to flow cytometry. Cell apoptosis was validated with PE Annexin V Apoptosis Detection Kit I (559763, BD Biosciences) according to the instructed protocol. Flow cytometry was performed with Fortessa X20 and the related results were analyzed with FlowJo V10 software.

MONOMAC 6 cells = assay: Response to DNMT inhibitors after pretreatment; format: cell-based; conditions: pretreated 64 nM 48 hours; 100 nM DAC or 100 nM AZA
[4] = Solubility and uptake after i.p. injection (dissection); format: physicochemical, mice; conditions: yellow/orange crystals in abdomen
Method: Mice from PDX mouse model were treated with compound of formula (I) via i.p. injection and later dissected.

MA9.3ITD AML cells = assay: Xenograft AML mouse model with MA9.3ITD cells; conditions: cells pretreated 100 nM 48 hours; 2 mg/kg/day every other day i.p., ten treatments
Method: For xenograft AML models with NRGS mice, the leukemia AML cells, with high endogenous FTO expression, were pretreated with 100 nM FTO inhibitors for 48 hours before transplantation, and drug treatment was started at day 11 after transplantation.
Xenograft AML mouse models and AML PDX mouse models: NRG-SGM3 mice were used for both ‘human-in-mouse’ xeno-transplanation models and PDX models. […] For xenograft mouse, 0.1×10^6 MA9.3ITD cells were transplanted into NRGS recipient mice intravenously. Drug treatment was started from 10 days after transplanatation.

NB4 cells = assay: Combination with DNMT inhibitors, cell growth; format: cell-based; conditions: 48 hours, 256 nM formula (IIa)
Method: Cell proliferation was measured. […] This experiment was repeated with NB4 cells. […] Synergistic inhibitory effect of FTO inhibitor together with DNMT inhibitor on cell proliferation was observed.
NB4 AML cells were treated with 256 nM compound of formula (IIa), 1000 nM AZA, 100 nM DAC, or their combinations for 48 hours. Effects of compound of formula (IIa), DAC, AZA and combined effects of compound of formula (IIa) with either DAC or AZA on […] AML cell growth was measured (FIG. 9D).

[5] = tested on: murine FLT3ITD/NPM1mut leukemic cells; assay: Colony forming assay; conditions: 10 nM or 50 nM
Method: (§4) Serial colony-forming assay: The assay was employed as described previously with some modification (31). […] The dishes were incubated at 37° C. in a humidified atmosphere of 5% C02 in air for 7 days. Then, colony cells were collected and replated every 7 days with 20,000 cells/dish for 3 passages. Colony numbers were counted and compared for each passage.

[6] = tested on: primary murine MLL-AF9 (MA9) leukemic cells; assay: Colony forming assay; conditions: 1 μM
Method: MA9 murine leukemic cells were used for colony forming assay.
as §4

HONO-1 AML cells = assay: Combination with DNMT inhibitors, cell growth; format: cell-based; conditions: 256 nM formula (IIa), 48 hours
Method: HONO-1 AML cells were treated with 256 nM compound of formula (IIa), 1000 nM AZA, 100 nM DAC, or their combinations for 48 hours. Effects of compound of formula (IIa), DAC, AZA and combined effects of compound of formula (IIa) with either DAC or AZA on HONO-1 AML cell growth was measured (FIG. 9C).

Method for MA9 murine AML cells: as §3
The study was done following secondary BMT with murine MA9 cells, where drug treatment was initiated 7 days after BMT. […] Treatment strategy for DAC: 0.1 mg/kg/day, three times for one week, two weeks in total, i.p. injection.
The Lin^− progenitor cells were retrovirally transduced with MSCV-Neo-MA9 construct through two rounds of ‘spinoculation’ as described previously (31). […] For secondary BMT assays, primary leukemic mouse bone marrow cells (CD45.2+) were collected and sorted by flow cytometry when the mice developed full-blown AML. The cells were injected into sub-lethally irradiated (570 rads) secondary recipient mice with 0.1×10^6 donor cells per mouse via tail vein injection.

SMILES	expression of PD-L1/2 [1]	growth (pancreatic cancer)	growth (Glioma)	growth (breast tumors)	cell viability [2]	sensitization to ATRA, DNR, Ara-C, Aza and DAC (AML cells)	effect with TKI in inhibiting viability (AML cells)	cell apoptosis (NOMO-1 cells)	other results
Nc1ncn([C@@H]2O[C@H](CO)[C@@H](O)[C@H]2O)c(=O)n1 [AZA, 5-azacytidine]	upregulation of PD-L1/2	–	–	–	–	–	–	–	–
Cc1c(-c2ccc(-c3ccccc3F)cc2)nc2ccc(F)cc2c1C(=O)O [formula (II)]	–	growth disadvantage	growth disadvantage	growth disadvantage	significantly decreased cell viability of AML	sensitize AML cells	synergize with TKI	dose-dependent increase in cell apoptosis	effect with DAC on survival (Kaplan-Meier) (MA9 murine AML cells; 5 mg/kg/day FTO inhibitor, DAC 0.1 mg/kg/day i.p.): synergistic effect; anti-leukemia effects (delaying leukemogenesis, improving survival) (MA9 murine AML cells; 5 mg/kg/day every other day, ten treatments, i.p. or i.v. (micelle)): promising anti-leukemia effects; anti-leukemia effect, survival (Kaplan-Meier) ([3]; 5 mg/kg/day every other day, 10 times, in PBS): strong anti-leukemia effect; anti-leukemia effect, engraftment of AML patient cells into bone marrow ([3]; hCD45 and hCD33 positive cells at day 26): strong anti-leukemia effect
C(=N\NC1=NCCN1)/c1c2ccccc2c(/C=N/NC2=NCCN2)c2ccccc12 [formula (I)]	–	growth disadvantage	growth disadvantage	growth disadvantage	significantly decreased cell viability of AML	sensitize AML cells	synergize with TKI	dose-dependent increase in cell apoptosis	inhibition of cell proliferation by DAC or AZA after pretreatment (MONOMAC 6 cells): increased inhibition in cell proliferation; solubility and uptake [4]: extreme low solubility and uptake
Cc1noc(C)c1-c1cc(Cl)c(Nc2ccccc2C(=O)NO)c(Cl)c1 [FB23-2, reference compound]	–	–	–	–	–	–	–	–	survival (Kaplan-Meier) (MA9.3ITD AML cells): lived significantly longer than the control groups
Nc1ncn([C@H]2C[C@H](O)[C@@H](CO)O2)c(=O)n1 [DAC, 5-aza-2′-deoxycytidine]	upregulation of PD-L1/2	–	–	–	–	–	–	–	expression of PD-L1 and PD-L2 ([1]; MONOMAC 6, 1 μM, 3 μM, 5 μM, 48 hours): induced expression of PD-L1 and PD-L2 in a dose dependent manner
O=C(O)c1cc(-c2ccc(-c3ccccc3)cc2)nc2ccccc12 [formula (IIa)]	–	–	–	–	–	–	–	–	effect with DAC on cell growth (NB4 cells; 100 nM DAC): synergistic effects; effect with AZA on cell growth (NB4 cells; 1000 nM AZA): synergistic effects; inhibitory effect on colony forming activity compared with formula (II) [5]: slightly stronger inhibitory effect; colony forming activity ([5]; b415): dose dependent decreased colony forming activity; colony forming activity [6]: decreased colony forming activity; inhibitory effect on colony forming activity compared with formula (II) [6]: slightly stronger inhibitory effect; effect with DAC on cell growth (HONO-1 AML cells; 100 nM DAC): synergistic effects; effect with AZA on cell growth (HONO-1 AML cells; 1000 nM AZA): synergistic effects
